Reference: the supplement of paper PMC10627819

Key:
Assay in all cases: fitness (endpoint OD595 vs no drug) (fraction); higher = more growth
[1] = tested on: B. subtilis 168
In short: (§1)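 Fitness was measured as bacterial growth in 384-well plates inoculated at OD595 0.01 (30 µl, or 55 µl for S. pneumoniae). Media were TSB, LB Lennox or CY, at 37 °C. OD595 was read every 30 min for 14 h and background-subtracted against the first reading. Fitness is OD595 at the transition into stationary phase divided by the robust mean of no-drug control wells, capped at 1.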

[2] = tested on: S. aureus DSM 20231
In short: as §1

[3] = tested on: S. pneumoniae D39V
In short: as §1

[4] = tested on: S. aureus Newman
In short: as §1
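Note: OD595 on entry to stationary phase over no-drug wells; at most 1.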

CN(C)[C@@H]1C(O)=C(C(N)=O)C(=O)[C@@]2(O)C(O)=C3C(=O)c4c(O)ccc(Cl)c4[C@@](C)(O)[C@H]3C[C@@H]12 [Chlortetracycline] + CCC[C@@H]1C[C@@H](C(=O)N[C@@H]([C@H]2O[C@H](SC)[C@H](O)[C@@H](O)[C@H]2O)[C@@H](C)O)N(C)C1 [Lincomycin]
Conditions	fitness
[1], first compound 0.0475 µg/mL, partner 0.1 µg/mL	0.87
[1], first compound 0.0475 µg/mL, partner 0.2 µg/mL	0.862
[1], first compound 0.0475 µg/mL, partner 0.4 µg/mL	0.85
[1], first compound 0.095 µg/mL, partner 0.1 µg/mL	0.805
[1], first compound 0.095 µg/mL, partner 0.2 µg/mL	0.817
[1], first compound 0.095 µg/mL, partner 0.4 µg/mL	0.803
[1], first compound 0.19 µg/mL, partner 0.1 µg/mL	0.648
[1], first compound 0.19 µg/mL, partner 0.2 µg/mL	0.489
[1], first compound 0.19 µg/mL, partner 0.4 µg/mL	0.406
[2], first compound 0.012 µg/mL, partner 0.1 µg/mL	0.472
[2], first compound 0.012 µg/mL, partner 0.2 µg/mL	0.259
[2], first compound 0.012 µg/mL, partner 0.4 µg/mL	0.0974
[2], first compound 0.024 µg/mL, partner 0.1 µg/mL	0.233
[2], first compound 0.024 µg/mL, partner 0.2 µg/mL	0.104
[2], first compound 0.024 µg/mL, partner 0.4 µg/mL	0.0491
[2], first compound 0.048 µg/mL, partner 0.1 µg/mL	0.0441
[2], first compound 0.048 µg/mL, partner 0.2 µg/mL	0.0385
[2], first compound 0.048 µg/mL, partner 0.4 µg/mL	0.0333
[3], first compound 0.012 µg/mL, partner 0.215 µg/mL	0.802
[3], first compound 0.012 µg/mL, partner 0.43 µg/mL	0.716
[3], first compound 0.012 µg/mL, partner 0.86 µg/mL	0.268
[3], first compound 0.024 µg/mL, partner 0.215 µg/mL	0.769
[3], first compound 0.024 µg/mL, partner 0.43 µg/mL	0.666
[3], first compound 0.024 µg/mL, partner 0.86 µg/mL	0.246
[3], first compound 0.048 µg/mL, partner 0.215 µg/mL	0.636
[3], first compound 0.048 µg/mL, partner 0.43 µg/mL	0.426
[3], first compound 0.048 µg/mL, partner 0.86 µg/mL	0.222
[3], first compound 0.375 µg/mL, partner 0.2 µg/mL	0.0295
[3], first compound 0.375 µg/mL, partner 0.4 µg/mL	0.0454
[3], first compound 0.375 µg/mL, partner 0.8 µg/mL	0.0386
[3], first compound 0.75 µg/mL, partner 0.2 µg/mL	0.0393
[3], first compound 0.75 µg/mL, partner 0.4 µg/mL	0.0417
[3], first compound 0.75 µg/mL, partner 0.8 µg/mL	0.0458
[3], first compound 1.5 µg/mL, partner 0.2 µg/mL	0.0273
[3], first compound 1.5 µg/mL, partner 0.4 µg/mL	0.035
[3], first compound 1.5 µg/mL, partner 0.8 µg/mL	0.0234

one replicate
Conditions	fitness
[1], first compound 0.0475 µg/mL, partner 0.8 µg/mL	0.845
[1], first compound 0.0475 µg/mL, partner 1.6 µg/mL	0.761
[1], first compound 0.095 µg/mL, partner 0.8 µg/mL	0.692
[1], first compound 0.095 µg/mL, partner 1.6 µg/mL	0.5
[1], first compound 0.19 µg/mL, partner 0.8 µg/mL	0.0991
[1], first compound 0.19 µg/mL, partner 1.6 µg/mL	0.0613
[2], first compound 0.006 µg/mL, partner 0.1 µg/mL	0.712
[2], first compound 0.006 µg/mL, partner 0.2 µg/mL	0.483
[2], first compound 0.006 µg/mL, partner 0.4 µg/mL	0.203

CO/N=C(\C(=O)N[C@@H]1C(=O)N2C(C(=O)O)=C(COC(C)=O)CS[C@H]12)c1csc(N)n1 [Cefotaxime] + CO/N=C(\C(=O)N[C@@H]1C(=O)N2C(C(=O)[O-])=C(C[N+]3(C)CCCC3)CS[C@H]12)c1csc(N)n1 [Cefepime]
Conditions	fitness
[2], first compound 0.039 µg/mL, partner 0.125 µg/mL	0.782
[2], first compound 0.039 µg/mL, partner 0.25 µg/mL	0.847
[2], first compound 0.039 µg/mL, partner 0.5 µg/mL	0.824
[2], first compound 0.078 µg/mL, partner 0.125 µg/mL	0.754
[2], first compound 0.078 µg/mL, partner 0.25 µg/mL	0.8
[2], first compound 0.078 µg/mL, partner 0.5 µg/mL	0.772
[2], first compound 0.156 µg/mL, partner 0.125 µg/mL	0.686
[2], first compound 0.156 µg/mL, partner 0.25 µg/mL	0.73
[2], first compound 0.156 µg/mL, partner 0.5 µg/mL	0.753
[2], first compound 0.312 µg/mL, partner 0.125 µg/mL	0.664
[2], first compound 0.312 µg/mL, partner 0.25 µg/mL	0.661
[2], first compound 0.312 µg/mL, partner 0.5 µg/mL	0.71
[3], first compound 0.0018 µg/mL, partner 0.007 µg/mL	≥ 1
[3], first compound 0.0018 µg/mL, partner 0.0078 µg/mL	≥ 1
[3], first compound 0.0018 µg/mL, partner 0.014 µg/mL	≥ 1
[3], first compound 0.0018 µg/mL, partner 0.0155 µg/mL	≥ 1
[3], first compound 0.0018 µg/mL, partner 0.028 µg/mL	0.93
[3], first compound 0.0018 µg/mL, partner 0.031 µg/mL	0.926
[3], first compound 0.0035 µg/mL, partner 0.007 µg/mL	0.983
[3], first compound 0.0035 µg/mL, partner 0.0078 µg/mL	0.998
[3], first compound 0.0035 µg/mL, partner 0.014 µg/mL	0.994
[3], first compound 0.0035 µg/mL, partner 0.0155 µg/mL	0.996
[3], first compound 0.0035 µg/mL, partner 0.028 µg/mL	0.8
[3], first compound 0.0035 µg/mL, partner 0.031 µg/mL	0.89
[3], first compound 0.007 µg/mL, partner 0.007 µg/mL	0.94
[3], first compound 0.007 µg/mL, partner 0.0078 µg/mL	0.921
[3], first compound 0.007 µg/mL, partner 0.014 µg/mL	0.96
[3], first compound 0.007 µg/mL, partner 0.0155 µg/mL	0.891
[3], first compound 0.007 µg/mL, partner 0.028 µg/mL	0.629
[3], first compound 0.007 µg/mL, partner 0.031 µg/mL	0.553
[4], first compound 0.078 µg/mL, partner 0.125 µg/mL	0.75
[4], first compound 0.078 µg/mL, partner 0.25 µg/mL	0.695
[4], first compound 0.078 µg/mL, partner 0.5 µg/mL	0.696
[4], first compound 0.156 µg/mL, partner 0.125 µg/mL	0.618
[4], first compound 0.156 µg/mL, partner 0.25 µg/mL	0.577
[4], first compound 0.156 µg/mL, partner 0.5 µg/mL	0.519
[4], first compound 0.312 µg/mL, partner 0.125 µg/mL	0.469
[4], first compound 0.312 µg/mL, partner 0.25 µg/mL	0.415
[4], first compound 0.312 µg/mL, partner 0.5 µg/mL	0.36
[4], first compound 0.625 µg/mL, partner 0.125 µg/mL	0.206
[4], first compound 0.625 µg/mL, partner 0.25 µg/mL	0.178
[4], first compound 0.625 µg/mL, partner 0.5 µg/mL	0.0892
[4], first compound 1.25 µg/mL, partner 0.125 µg/mL	0.125
[4], first compound 1.25 µg/mL, partner 0.25 µg/mL	0.0934
[4], first compound 1.25 µg/mL, partner 0.5 µg/mL	0.049
[4], first compound 2.5 µg/mL, partner 0.125 µg/mL	0.0454
[4], first compound 2.5 µg/mL, partner 0.25 µg/mL	0.0501
[4], first compound 2.5 µg/mL, partner 0.5 µg/mL	0.0407

C[C@@H]1O[C@@H]1P(=O)(O)O [Fosfomycin] + CO[C@@]12[C@H](COC(N)=O)C3=C(C(=O)C(C)=C(N)C3=O)N1C[C@@H]1N[C@@H]12 [Mitomycin C]
fitness
Conditions	first compound 0.781 µg/mL	first compound 1.25 µg/mL	first compound 1.562 µg/mL	first compound 2.5 µg/mL	first compound 3.124 µg/mL	first compound 5 µg/mL
[2], partner 0.0156 µg/mL	0.607	–	0.494	–	0.43	–
[2], partner 0.0312 µg/mL	0.57	–	0.497	–	0.318	–
[2], partner 0.0625 µg/mL	0.49	–	0.35	–	0.165	–
[3], partner 0.001075 µg/mL	–	0.903	–	0.869	–	0.772
[3], partner 0.002 µg/mL	–	0.858	–	0.812	–	0.694
[3], partner 0.00215 µg/mL	–	0.843	–	0.837	–	0.733
[3], partner 0.004 µg/mL	–	0.793	–	0.77	–	0.617
[3], partner 0.0043 µg/mL	–	0.748	–	0.734	–	0.652
[3], partner 0.008 µg/mL	–	0.65	–	0.648	–	0.574
[4], partner 0.0156 µg/mL	0.576	–	0.452	–	0.124	–
[4], partner 0.0312 µg/mL	0.543	–	0.363	–	0.0839	–
[4], partner 0.0625 µg/mL	0.373	–	0.114	–	0.0142	–
